This note sets out measurements from patent US12377086B2, “Therapeutic methods, combinations and kits” (priority 2021, dated 2025).

The structures appear in SMILES notation. Like-named read-outs stand apart in the source and are kept apart here.

Data set [1] addresses T1, VIM-2 (Pseudomonas aeruginosa, UniProt Q5U7L7). The experiment in a line: biochemical. To be noted: for IC50: 5 nM MBL, 10 μM nitrocefin, read-out: VIM-2 IC50; for Ki: nitrocefin substrate, competitive-inhibition fit, read-out: VIM-2 Ki. On the procedure:
The pET24a-VIM-2 plasmid was transformed into competent BL21 (DE3) E. coli cells. The cells were plated onto an LB-agar plate with kanamycin (25 μg/mL) and incubated overnight at 37° C. A single colony was used to inoculate 50 mL of LB, containing 25 μg/mL kanamycin, and the culture was shaken overnight at 37° C. From the overnight culture, 10 mL were transferred to 4×IL LB medium containing 25 μg/mL kanamycin. The cultures were grown at 37° C. until an optical density (OD600 nm) of 0.6-0.8 was reached, at which point protein production was induced with IPTG (0.5 mM) and ZnCl2 (100 μM). The temperature was reduced to 20° C., and the cells were shaken for an additional 18 h. The cultures were harvested by centrifugation (8 Kxg) for 10 min at 4° C. The resulting pellets were re-suspended in 25 mL of 50 mM HEPES, pH 7.5, containing 500 mM NaCl (buffer B). The cells were lysed with three passes through a French Press. The lysate was centrifuged (15 Kxg) for 30 min at 4° C. The supernatant was dialyzed against 2 L of 50 mM HEPES, pH 7.5 (buffer A), for 4 h. Buffer A was used to equilibrate a 25 mL Q-Sepharose column using an FPLC. The sample was loaded onto the column, and proteins were eluted with a linear gradient 0-500 mM NaCl with buffer B. Fractions containing VIM-2, determined by SDS-PAGE, were pooled and concentrated to 2-3 mL in an Amicon ultraconcentrator equipped YM-10 membrane. […] Fractions containing pure VIM-2 were pooled, and metal analysis was performed.
The enzyme inhibition constant (Ki) was derived from initial-velocity measurements by nonlinear regression using competitive-inhibition enzyme kinetics using Graphpad Prism 6.

A further data set concerns HEK293 cells. The experiment in a line: Human cell cytotoxicity assay (MTT). The following applies: 72 h.
For data set [2], the system named is VIM-2 expressing E. coli. The data set is classed as cell-based, Escherichia coli. Here is the method:
(§1) The optical density of the cell cultured was monitored at 600 nm (OD600 nm). The cells were cultured on 0.8 g/100 ml nutrient agar plate at pH 7.0 and 37° C. […] An overnight culture of the bacterial strain was sub-cultured to 0.06 OD600 nm into the NB medium and was then seeded at max 200 μl into the wells of a 96 well microtiter plate. Samples were then incubated at 37° C. and shaken at 200 rpm for 18 h. The absorbance was measured on an ELIZA plate reader and analyzed with the Gen5™ software suite (version 1.08).
The bacterial culture was prepared as described above. The diluted subculture bacteria in NB medium were set up to a final volume of 200 μl in clear flat-bottom 96-well plates containing ten different concentrations of each tested compound ranging from 0.001 μM to 50 μM. The mixing of the bacterial culture plate were then incubated in a 37° C. […] shaken incubator at 200 rpm for 18 h before measuring their optical density at 600 nm.

Data set [3] concerns the target T1, VIM-2. The experiment in a line: biochemical. The following applies: for VIM-2 percentage inhibition: 50 μM compound, 5 nM MBL, 10 μM nitrocefin, 30 mins. Here is the method: The pET24a-VIM-2 plasmid was transformed into competent BL21 (DE3) E. coli cells. The cells were plated onto an LB-agar plate with kanamycin (25 μg/mL) and incubated overnight at 37° C. A single colony was used to inoculate 50 mL of LB, containing 25 μg/mL kanamycin, and the culture was shaken overnight at 37° C. From the overnight culture, 10 mL were transferred to 4×IL LB medium containing 25 μg/mL kanamycin. The cultures were grown at 37° C. until an optical density (OD600 nm) of 0.6-0.8 was reached, at which point protein production was induced with IPTG (0.5 mM) and ZnCl2 (100 μM). The temperature was reduced to 20° C., and the cells were shaken for an additional 18 h. The cultures were harvested by centrifugation (8 Kxg) for 10 min at 4° C. The resulting pellets were re-suspended in 25 mL of 50 mM HEPES, pH 7.5, containing 500 mM NaCl (buffer B). The cells were lysed with three passes through a French Press. The lysate was centrifuged (15 Kxg) for 30 min at 4° C. The supernatant was dialyzed against 2 L of 50 mM HEPES, pH 7.5 (buffer A), for 4 h. Buffer A was used to equilibrate a 25 mL Q-Sepharose column using an FPLC. The sample was loaded onto the column, and proteins were eluted with a linear gradient 0-500 mM NaCl with buffer B. Fractions containing VIM-2, determined by SDS-PAGE, were pooled and concentrated to 2-3 mL in an Amicon ultraconcentrator equipped YM-10 membrane. Further purification was conducted with a Sephacryl S-200 gel filtration column using 50 mM HEPES, pH 7.5, containing 150 mM NaCl. Fractions containing pure VIM-2 were pooled, and metal analysis was performed.
(§2) To identify potential MBL inhibitors, the relative change in the formation of hydrolyzed nitrocefin between treated and untreated MBL was determined as percentage inhibition. 5 nM of each BML was pre-incubated for 10 mins with 50 μM of each compound, followed by the addition of 10 μM nitrocefin.
(§3) Each MBL was incubated with 50 μM of each compound, followed by the addition of nitrocefin. The relative change in absorbance is reported as percentage inhibition.

Data set [4] is described as follows: in vitro. The following applies: human, HEK293 cells.
Procedure: (§4) Human embryonic kidney cell line (HEK293) were grown in 100 mm cell culture petri dishes at 37° C. with 5% CO2 in Dulbecco's Modified Eagle's Medium high glucose medium containing 1% penicillin/streptomycin (Sigma-Aldrich, St. Louis, MO) and supplemented with 5% of fetal bovine serum (Thermo Fisher Scientific Gibco®). Cells under 10 passages and the 80% of monitored cell petri dish were used for experiment.
(§5) Cytotoxicity of tested compounds were estimated using the MTT method. Cell viability were measured by counting viable cells by using the 3 (4,5dimethylthiazol-2-yl)-2,5-diphenyltetrazolium bromide (MTT) (Sigma-Aldrich, St. Louis, MO) colorimetric dye-reduction assay. […] Following 24 h incubation and attachment, the cells were incubated for 72 h with different concentrations of inhibitors (0.01˜100 μM) in culture media without FBS. The Control cells were supplemented only with a medium without containing FBS. All samples in 96 well plate were incubated at 37° C. at an atmosphere of 5% CO2. […] The absorbance was measured using a micro-plate reader at wavelength 590 nm. The CC50 were obtained based on a comparison with untreated cells by fitting the data to a sigmoidal dose-response equation using Graphpad Prism 6.
Another data set deals with NDM-1 (Klebsiella pneumoniae, UniProt C7C422). The experiment in a line: biochemical. To be noted: read-out: NDM-1 percentage inhibition, 50 μM compound, 5 nM MBL, 10 μM nitrocefin, 30 mins. Here is the method: BL21 (DE3) E. coli cells containing the pET26b-ndm-1 plasmid were used to inoculate a 50 mL LB starter culture containing kanamycin (25 μg/mL). The culture was grown overnight at 37° C. The starter culture was then used to inoculate 4×1 L LB containing kanamycin (25 μg/mL). These flasks were incubated at 37° C. until culture reached an optical density of (OD600) of 0.6 to 0.8. The incubator was then set to 22° C. and the cultures were shaken for 30 min to allow them to cool. ZnCl2 ([…]) and IPTG (0.5 mM) were then added to the cultures and they were grown for 18 h at 22° C. The cells were then harvested using centrifugation (8000×g) for 10 min. The pellet was resuspended with 25 mL 50 mM HEPES, pH 7.5 containing 500 mM NaCl (Buffer B). Lysis was performed with three passes through a French Press. The lysate was centrifuged for 30 min (15,000×g) at 4° C. The supernatant was then dialyzed versus 2 L 50 mM HEPES, pH 7.5 (Buffer C) for 4 h. An FPLC was used to equilibrate a Q-Sepharose column using buffer C using a flowrate of 2.0 mL/min for 1.5 h. The lysate was then loaded onto the column and eluted with a linear NaCl gradient from 0-500 mM. Fractions containing NDM-1 were identified with SDS-PAGE. These fractions were pooled and concentrated to 2-3 mL in an Amicon ultracentrifugation concentrating unit with a YM-10 membrane. The resulting protein mixture was then loaded onto a Sephacryl S-200 gel filtration column run with 50 mM HEPES, pH 7.5 containing 150 mM NaCl (Buffer A). SDS-PAGE was used to identify fractions containing pure protein.
NDM-1, sequence (C7C422 whole entry, looked up, species assumed): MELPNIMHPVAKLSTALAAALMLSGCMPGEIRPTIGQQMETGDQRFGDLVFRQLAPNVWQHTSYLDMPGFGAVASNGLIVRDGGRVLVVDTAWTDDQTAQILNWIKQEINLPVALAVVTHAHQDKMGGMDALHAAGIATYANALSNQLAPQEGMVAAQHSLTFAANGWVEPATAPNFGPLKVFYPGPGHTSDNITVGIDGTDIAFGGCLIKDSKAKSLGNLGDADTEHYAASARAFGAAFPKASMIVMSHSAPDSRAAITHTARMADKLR
as §2, §3

A short description of data set [5]: in vitro. To be noted: human, microsomes, pH 7.4. Here is the method: The in vitro microsomal stability assay was conducted in triplicate in human liver microsomal systems. In a typical incubation, the test compound was spiked into the reaction mixture containing 0.5 mg/mL of liver microsomal protein and 1 mM of NADPH in 0.1 M potassium phosphate buffer (pH 7.4) at 37° C. At various time points, 1 volume of reaction aliquot was taken and quenched with 3 volumes of acetonitrile. The samples were then vortexed and centrifuged at 14,000 rpm for 3 min at 4° C. The supernatants were collected and analyzed by LC-MS/MS to determine the in vitro metabolic half-life (t1/2) and intrinsic clearance (CLint).

Data set [6] deals with VIM-2 expressing E. coli. The class given is cell-based, Escherichia coli. The following applies: VIM-2 expressing E. coli, compound with amoxicillin. Here is the method:
as §1
• The data are reported as relative percentage growth compared to untreated cells.

Data set [7] has as its target T1, VIM-2. The following applies: after incubation with inhibitor and dialysis. Here is the method: VIM-2 was diluted to 6 μM with 50 mM HEPES, pH 7.5, containing 150 mM NaCl. The diluted protein solution was used to make several 5 mL aliquots. […] One aliquot contained one molar equivalent of inhibitor (6 μM), with respect to enzyme concentration, and the second aliquot contained two molar equivalents (12 μM). One aliquot contained no inhibitor. Each aliquot was then incubated for 4 h at 4° C. Following incubation, each aliquot was dialyzed versus 500 mL of 50 mM HEPES, pH 7.5, for 4 h at 4° C. The aliquots were analyzed using ICP-AES, as previously described REF. The emission wavelengths used were 213.856, 238.892, 259.940, 231.604, and 324.754 nm for Zn, Co, Fe, Ni, and Cu, respectively.
To further address the mode of action of 8-hydroxyquinolines, equilibrium dialysis experiments were conducted. […] EDTA, a well-known metal scavenger, inhibits all MBLs through a chelation mechanism (Bush, K.; Jacoby, G. A. Updated Functional Classification of beta-Lactamases. Antimicrobial Agents and Chemotherapy 2010, 54, 969-976).

A short description of data set [8]: in vitro. The following applies: human, plasma. On the procedure: The plasma stability assay was performed in triplicate by incubating the test compound in normal human plasma at 37° C. At 0, 1, 3, 6, and 24 h, aliquots of the plasma mixture were taken and quenched with 3 volumes of acetonitrile. The samples were then vortexed and centrifuged at 14,000 rpm for 3 min at 4° C. The supernatants were collected and analyzed by LC-MS/MS to determine the remaining percentage at various time points and to calculate plasma half-life (t1/2).

[9] abbreviates: in the presence of 50 μM amoxicillin.

Broadly, the IC50 is the concentration that gives 50% inhibition. As a reminder, the Ki is the equilibrium dissociation constant of an inhibitor or competing ligand from its target. As usually defined, the CC50 is the concentration giving 50% cytotoxicity. What is called EC50 is the concentration that produces a half-maximal response. One may read the inhibition as how much of the control response was suppressed. The half-life is the time needed for the level to fall by half in the phase considered. A high value points to slow loss.

Procedure for HEK293 cells: as §4, §5

Turning to `O=[N+]([O-])c1ccc(O)c2ncccc12` [Compound 41], on VIM-2 [1], the IC50 turned out to be 670 nM and the Ki came out at 250 nM. Besides, in the data set on HEK293 cells, the CC50 is 7800 nM. This compound had an EC50 in the data set with VIM-2 expressing E. coli [2] (50 uM amoxicillin) of 70 nM. Further, the EC50 in the data set on VIM-2 expressing E. coli [2] (setting [9]) was found to be 70 nM. On VIM-2 [3], this compound had a VIM-2 percentage inhibition of 86%.
As to `O=C(O)c1ccc2cccnc2c1O` [Compound 45, 8-hydroxyquinoline-7-carboxylic acid], the CC50 at 72 h in “in vitro [4]” was greater than 100000 nM. Moreover, the inhibition at 50 µM on NDM-1 worked out at 99%; at VIM-2 [3] (read-out: VIM-2 percentage inhibition, 50 μM compound, 5 nM MBL, 10 μM nitrocefin, 30 mins), 94%. Besides, the half-life was greater than 1 h in “in vitro [5]” and greater than 24 h in the data set “in vitro [8]”. Further, in the data set on VIM-2 expressing E. coli [6], the synergistic growth inhibition result is reported as “over 96%”. Moreover, the “metal content of VIM-2 / removal of Zn(II) from the active site” value at VIM-2 [7] was “do not inhibit VIM-2 by removal of Zn(II)”.
In the case of `Oc1c(I)cc(Cl)c2cccnc12` [Compound 48, Clioquinol, reference compound], at VIM-2 [1], the IC50 came to 5100 nM and the Ki turned out to be 1100 nM. The synergistic growth inhibition result with VIM-2 expressing E. coli [6] was “over 96%”. In the data set on HEK293 cells, this compound came in with a CC50 of 18300 nM. The EC50 in the data set on VIM-2 expressing E. coli [2] (setting [9]) worked out at 940 nM. On VIM-2 [3], this compound gave a VIM-2 percentage inhibition of 93%. The “metal content of VIM-2 / removal of Zn(II) from the active site” value on VIM-2 [7] is recorded as “do not inhibit VIM-2 by removal of Zn(II)”.
